Tests used:
Assay in all cases: relative viability (nuclei count vs DMSO), 5 days (fraction); higher = more cells survive
[1] = compound: O=S(=O)(c1ccccc1)N(CC(F)(F)F)c1ccc(C(O)(C(F)(F)F)C(F)(F)F)cc1 + Nc1nc2[nH]cc(CCc3ccc(C(=O)N[C@@H](CCC(=O)O)C(=O)O)cc3)c2c(=O)[nH]1 [Pemetrexed] (partner 0.2 µM)
Summary of the method: (§1)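 Lung cancer cell lines were seeded in 1536-well plates and dosed by pin tool the next day, with either a single drug or a fixed anchor-drug dose combined with five library-drug doses (not always all listed) spaced in √10 steps. Five days later, one step fixed the cells and stained their nuclei (final 0.05% Triton X-100, 1% formaldehyde, 1 ug/ml Hoechst), and nuclei were counted on 4× images. Relative viability is the nuclei count in treated wells divided by the count in vehicle wells, and each value is the median of duplicate plates.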

RO-3306 + Phenformin = compound: C1=CC2=C(C=CC(=C2)C=C3C(=O)NC(=NCC4=CC=CS4)S3)N=C1 [RO-3306] + N=C(N)NC(=N)NCCc1ccccc1 [Phenformin] (partner 250 µM)
Summary of the method: as §1

[2] = compound: O=S(=O)(c1ccccc1)N(CC(F)(F)F)c1ccc(C(O)(C(F)(F)F)C(F)(F)F)cc1 + COc1cccc2cc(-c3nc([C@H]4CC[C@H](C(=O)O)CC4)n4ncnc(N)c34)[nH]c12 [OSI-027] (partner 0.5 µM)
Summary of the method: as §1

[3] = compound: O=S(=O)(c1ccccc1)N(CC(F)(F)F)c1ccc(C(O)(C(F)(F)F)C(F)(F)F)cc1 + N=C(N)NC(=N)NCCc1ccccc1 [Phenformin] (partner 250 µM)
Summary of the method: as §1

RO-3306 + Luminespib = compound: C1=CC2=C(C=CC(=C2)C=C3C(=O)NC(=NCC4=CC=CS4)S3)N=C1 [RO-3306] + CCNC(=O)c1noc(-c2cc(C(C)C)c(O)cc2O)c1-c1ccc(CN2CCOCC2)cc1 [Luminespib] (partner 0.01 µM)
Summary of the method: as §1

Cell Line | relative viability ([1]; first compound 0.8 µM) | relative viability ([1]; first compound 2.53 µM) | relative viability ([1]; first compound 8 µM) | relative viability (RO-3306 + Phenformin; first compound 0.01 µM) | relative viability (RO-3306 + Phenformin; first compound 0.03162 µM) | relative viability (RO-3306 + Phenformin; first compound 0.1 µM) | relative viability (RO-3306 + Phenformin; first compound 0.3162 µM) | relative viability (RO-3306 + Phenformin; first compound 1 µM) | relative viability ([2]; first compound 0.8 µM) | relative viability ([2]; first compound 2.53 µM) | relative viability ([2]; first compound 8 µM) | relative viability ([3]; first compound 0.8 µM) | relative viability ([3]; first compound 2.53 µM) | relative viability ([3]; first compound 8 µM) | relative viability (RO-3306 + Luminespib; first compound 0.01 µM) | relative viability (RO-3306 + Luminespib; first compound 0.03162 µM) | relative viability (RO-3306 + Luminespib; first compound 0.1 µM) | relative viability (RO-3306 + Luminespib; first compound 0.3162 µM) | relative viability (RO-3306 + Luminespib; first compound 1 µM)
NCI-H838 | 0.236 | 0.242 | 0.259 | 0.756 | 0.442 | 0.521 | 0.653 | 0.538 | 0.411 | 0.412 | 0.467 | 0.656 | 0.56 | 0.627 | 0.523 | 0.274 | 0.24 | 0.316 | 0.221
SW 900 | 0.581 | 0.478 | 0.538 | 0.636 | 0.539 | 0.506 | 0.465 | 0.502 | 0.52 | 0.519 | 0.591 | 0.649 | 0.34 | 0.437 | 0.148 | 0.181 | 0.172 | 0.175 | 0.183
NCI-H1792 | 0.892 | 0.702 | 0.717 | 0.196 | – | 0.156 | 0.289 | 0.259 | 0.688 | 0.717 | 0.458 | 0.305 | 0.267 | 0.204 | 0.587 | – | 0.568 | 0.349 | 0.341
BEN | 0.702 | 0.742 | 0.972 | 0.298 | 0.266 | 0.26 | 0.252 | 0.263 | 0.344 | 0.266 | 0.308 | 0.262 | 0.249 | 0.283 | 0.331 | 0.337 | 0.33 | 0.4 | 0.447
NCI-H1437 | 0.324 | 0.308 | 0.326 | 0.317 | 0.261 | 0.308 | 0.297 | 0.316 | 0.915 | 0.811 | 0.822 | 0.297 | 0.239 | 0.342 | 1.17 | 1.02 | 1.09 | 1.11 | 1.17
SK-LU-1 | 1.05 | 0.976 | 1.01 | 0.461 | 0.426 | 0.503 | 0.484 | 0.453 | 0.355 | 0.286 | 0.358 | 0.546 | 0.489 | 0.526 | 0.184 | 0.194 | 0.179 | 0.202 | 0.166
NCI-H1915 | 0.518 | 0.464 | 0.51 | 0.405 | 0.31 | 0.358 | 0.348 | 0.377 | 0.643 | 0.646 | 0.649 | 0.373 | 0.309 | 0.408 | 0.975 | 0.493 | 0.879 | 0.805 | 0.749
LU99A | 0.184 | 0.18 | 0.18 | 0.973 | 0.698 | 0.769 | 0.869 | 0.79 | 0.302 | 0.296 | 0.302 | 0.878 | 0.762 | 0.875 | 0.203 | 0.245 | 0.233 | 0.25 | 0.275

Source: the supplement of paper PMC10307832
